The source of these data is PubChem BioAssay AID1117319 (Southern Research Institute, 2015).

Results filed as inconclusive are left out.

The assay concerns the target Virion infectivity factor (Human immunodeficiency virus type 1 group M subtype B (isolate BH10)) + Virion infectivity factor (Human immunodeficiency virus type 1 group M subtype B (isolate BRU/LAI)) + Virion infectivity factor (Human immunodeficiency virus type 1 group M subtype B (isolate PCV12)) + Virion infectivity factor (Human immunodeficiency virus type 1 group M subtype B (isolate HXB2)) + DNA dC->dU-editing enzyme APOBEC-3G (Homo sapiens) (UniProt P69720+P69721+P69722+P69723+Q9HC16). Nature of the assay: HIV-1 Vif–A3G interaction blockers – biochemical, TR-FRET, GST-Vif 1-94, biotin-A3G peptide, dose response retest, primary screen (AID 1117319).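 Further: Vif residues 1-94 fused to GST binding biotinylated APOBEC3G peptide 110-148.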 Particulars: TR-FRET GST-Vif / biotin-A3G peptide binding. In general terms: In TR-FRET formats the signal depends on donor and acceptor labels being close together.
As for `O=C1NC(=O)N(c2ccc(Cl)cc2)C(=O)/C1=C\c1ccc(Sc2nc3ccccc3[nH]2)o1`, the IC50 is 11.7 µM.
The value for `O=C(/C=C/c1ccco1)NC(=S)Nc1ccccc1N1CCOCC1` was 11.5 µM.
The same measure for `COc1ccc(N=C2S/C(=C\c3ccc(C)o3)C(=O)N2CC(C)C)cc1`: 39.7 µM; for `CCn1c(SCC(=O)NCc2ccco2)nnc1-c1cccs1`: 95.8 µM.
`COC(=O)c1ccccc1NC(=O)C1CCCC1`: the IC50 was 0.55 µM.
As to `CC1(C)Cc2nc3sc(C(=O)O)c(N)c3cc2CS1`, the IC50 was 18.4 µM.
Turning to `O=C(O)CCC(=O)N(Cc1cccs1)Cc1cccs1`, the IC50 was 79.6 µM.
The value for `Cc1cnnc2ccc3c(no[n+]3[O-])c12` was 4.71 µM; that for `O=C(O)CCCCC1CCSS1` (centres undefined) was 7.67 µM; that for `CCSC1=C(C#N)C(c2cccs2)C(C(=O)OC)=C(C)N1` (centres undefined) was 75.5 µM.
The value for `CC(C)CC(NC(=O)/C(=C/c1ccco1)NC(=O)c1ccc(Br)o1)C(=O)O` (centres undefined) was 93.5 µM; that for `O=C(CSc1nc2ccccc2n1CCc1ccccc1)c1ccc(O)c(O)c1` was 2.14 µM; that for `Cc1cc(C)c2c(=N)c3ccccc3n(CCCCCCCCn3c4ccccc4c(=N)c4c(C)cc(C)nc43)c2n1` was 1.46 µM.
The same measure for `O=C1c2ccccc2C(=O)N1/N=C/c1ccc(O)c(O)c1O`: 4.54 µM; for `O=C(O)C1Nc2c(C(=O)N3CCOCC3)cccc2C2C=CCC12` (centres undefined): 2.02 µM.
With `O=C(Nc1ccc2nc(-c3ccco3)c(-c3ccco3)nc2c1)NC1CC1`, the IC50 was 0.3 µM.
Regarding `CNCc1ccccc1Sc1cc(O)ccc1O`, the half-inhibitory concentration (IC50) was 3.46 µM.
In the case of `O=C(CCS(=O)(=O)c1ccc(Br)cc1)N1CCN(c2ccc(F)cc2)CC1`, the concentration for half-maximal inhibition (IC50) was 52.8 µM.
The value for `COC(=O)c1ccc(COc2ccccc2/C=C(\C#N)C(=O)Nc2c(C)cc(C)cc2C)cc1` was 22.9 µM; that for `COc1ccc(N2CCN(C(=O)c3ccc(C)c(Cl)c3)CC2)cc1` was 42.2 µM.
Take `O=C1CC(c2ccco2)CC(O)=C1C=NCC1CCNCC1` (centres undefined): the IC50 was 13.5 µM.
With `CCCCn1c(N)c(N(CCOC)C(=O)c2cc(-c3ccco3)nc3ccccc23)c(=O)[nH]c1=O`, the IC50 is 10.9 µM.
The value for `O=C(NC(=S)N1CCCc2ccccc21)c1ccccc1` was 28.4 µM; that for `CCN1C(=O)/C(=C\c2ccc([N+](=O)[O-])s2)C(=O)NC1=S` was 1.53 µM.
The same measure for `Cc1ccc(Nc2nc(C(=O)NCc3ccco3)cs2)cc1`: 78.2 µM; for `CCN(CC)C(=O)c1ccc2c(c1)C1C=CCC1C(C(=O)O)N2` (centres undefined): 2.81 µM.
The value for `O=C1NC(=S)N(c2ccc(F)cc2)C(=O)/C1=C\c1ccoc1` was 18.8 µM; that for `Cc1occc1-c1nnc(SCC(=O)N2CCN(c3ccccc3)CC2)n1C` was 56.8 µM.
`O=C(O)C1Nc2c(O)cccc2C2C=CCC12` (centres undefined): the IC50 is 0.25 µM.
The value for `CC(=O)c1ccc2c(c1)C1C=CCC1C(C(=O)O)N2` (centres undefined) was 0.6 µM; that for `O=C(Cc1cccs1)N/N=C/C=C/c1ccco1` was 3.68 µM.
The same measure for `CCOC(=O)C1(C)NC(c2ccco2)C2C(=O)N(CC)C(=O)C21` (centres undefined): 99.2 µM; for `Nc1ccc(Oc2ncccn2)cc1`: 24.4 µM.
For the compound `O=C1NC(=O)C(=CN2CCc3ccccc32)C(=O)N1`, the IC50 is 91.3 µM.
With `Cc1cc(NC(=O)Cc2cccs2)no1`, the IC50 was 3.92 µM.
As to `CCOC(=O)C1CCN(Cc2cnc(Oc3ccc(OC)cc3)s2)CC1`, the IC50 was 80.9 µM.
For `COc1ccc(NC(=O)Nc2cccs2)cc1OC`, the IC50 was 34.5 µM.
The same measure for `O=c1[nH][nH]c2c(N=Cc3ccccc3O)ccc(F)c12`: 0.87 µM; for `Cc1cc(C)cc(Nc2ncc3c(n2)CC(c2ccco2)CC3=O)c1` (centres undefined): 6.84 µM.
For the compound `CCC(=O)NNc1ncnc2ccccc12`, the IC50 was 16.4 µM.
The same measure for `COc1cc(C2C(C(=O)c3ccco3)=C(O)C(=O)N2c2cc(C)on2)cc(Br)c1O` (centres undefined): 26.5 µM.
Take `CCOC(=O)N1CCN(c2ccc(O)cc2)CC1`: the IC50 is 16.8 µM.
The same measure for `CCOc1cccc(=O)c2c(C)n(CC(=O)c3ccccc3)c(C)c12`: 8.28 µM.
The same measure for `N#Cc1ccccc1CN1C(=O)S/C(=C/c2cccn2-c2ccc(C(=O)O)cc2)C1=O`: 19.8 µM; for `Cc1ccc([C@@H]2C3COCC=C3C(C#N)=C(N)C2(C#N)C#N)o1` (some centres undefined): 10.3 µM; for `O=C(O)/C=C/C(=O)Nc1cccnc1`: 62.9 µM.
The value for `COC(=O)c1cnn2c(C(F)(F)F)cc(-c3ccco3)nc12` was 7.16 µM; that for `CNc1ccc(Br)cc(C(=O)/C=C/c2cc(OC)ccc2OC)c1=O` was 3.6 µM.
Regarding `CCNc1ccc(Br)cc(C(=O)/C=C/c2ccc3c(c2)OCO3)c1=O`, the IC50 is 24.7 µM.
Turning to `C=CCn1c(Sc2nc(C)cs2)nc2c1c(=O)[nH]c(=O)n2C`, the IC50 was 94.2 µM.
For the compound `CNc1ccccc(C(=O)/C=C/c2ccccc2OC)c1=O`, the half-maximal inhibitory concentration (IC50) was 3.9 µM.
Take `O=C(/C=C/c1ccco1)N(c1ccccn1)c1ccccn1`: the IC50 was 3.05 µM.
Regarding `CNc1ccc(Br)cc(C(=O)/C=C/c2ccc(OC)cc2OC)c1=O`, the IC50 is 2.79 µM.
With `O=C1NC(=S)NC1=Cc1ccco1`, the half-maximal inhibitory concentration (IC50) is 11.3 µM.
`Oc1ccc(N=Cc2ccc(O)c(O)c2)cc1`: the half-maximal inhibitory concentration (IC50) is 0.99 µM.
As to `CCN1CCN(c2cc(N3CCN(C(=O)c4ccco4)CC3)c3c4c(onc24)-c2ccccc2C3=O)CC1`, the IC50 is 3.06 µM.
The same measure for `O=C(CCS(=O)(=O)c1ccc(Br)cc1)NC1CCCC1`: 20.5 µM; for `COCCNC(=O)COC(=O)c1[nH]c(C)c(C(C)=O)c1C`: 9.88 µM.
The value for `O=C(CN1CCN(S(=O)(=O)c2ccc(F)cc2)CC1)c1ccc(O)c(O)c1` was 20.1 µM; that for `CCOC(=O)c1nn(-c2ccc(Cl)cc2Cl)c(=N)c(C#N)c1C` was 12.7 µM.
Consider `CC[C@H](C)/C=C(C)/C=C/C1=CC2=CC(=O)[C@]3(C)OC(=O)[C@@H](C(C)=O)[C@@H]3C2=CO1`, for which the IC50 was 13 µM.
Consider `O=C(CCN1C(=O)/C(=C/c2cccs2)SC1=S)NC1=NCCS1`, for which the half-inhibitory concentration (IC50) is 12.3 µM.
As for `O=C(N/N=C/c1ccc(O)c(O)c1O)/C(=C/c1ccc([N+](=O)[O-])cc1)NC(=O)c1ccccc1`, the IC50 was 0.87 µM.
As to `O=c1oc(/C=C/c2ccco2)nc2sc3c(c12)CCC3`, the half-inhibitory concentration (IC50) was 15.5 µM.
The value for `O=C(c1ccccc1Br)N1CCN(c2ccccc2)CC1` was 38.7 µM.
On to `CCCN1C(=O)S/C(=C\c2ccc(N3CCOCC3)cc2C)C1=O`, for which the IC50 was 23.4 µM.
On to `Cc1ccc(-n2nc(-c3ccc(N)cc3)cc2N)cc1`, for which the IC50 was 33.5 µM.
On to `Cc1cc(C(=O)COC(=O)c2cc(O)c3ccccc3c2O)c(C)n1CC1CCCO1` (centres undefined), for which the IC50 was 6.92 µM.
`CC(=O)Nc1ccc(N/C=C/C(=O)C(C)(C)C)cc1`: the concentration for half-maximal inhibition (IC50) is 40.8 µM.
The value for `CCN(CC)c1ccc(NC(=O)CCS(=O)(=O)c2ccc(Br)cc2)c(C)c1` was 5.51 µM.
The same measure for `N#CC1=C(N)OC2=C(CCC/C2=C/c2ccoc2)C1c1ccoc1` (centres undefined): 2.64 µM; for `COC(=O)c1ccc(CC(=O)c2c(C)cc(O)cc2O)o1`: 2.33 µM.
Turning to `CN(C)c1ccc(C=c2c3cc([N+](=O)[O-])ccc3n3c2cc(-c2ccccc2)[n+]3C)cc1`, the IC50 is 3.58 µM.
The value for `CCc1noc(N)c1C(=O)Nc1ccc(F)c(Cl)c1` was 74.6 µM.
`COc1cccc(=O)c2c(C)n(-c3ccc(C(=O)O)cc3)c(C)c12`: the concentration for half-maximal inhibition (IC50) is 3.22 µM.
Take `CC1Cc2ccccc2N1Cc1cc(=O)n2ccsc2n1` (centres undefined): the IC50 is 7.03 µM.
The same measure for `COc1ccccc1N1C(=O)NC(=O)/C(=C/c2ccc([N+](=O)[O-])s2)C1=O`: 6.9 µM.
As to `Cc1ccsc1C=Nc1ccc(O)cc1`, the IC50 was 17.1 µM.
The value for `COc1ccc(Cl)cc1NC(=O)CCS(=O)(=O)c1ccc(Br)cc1` was 8.09 µM; that for `O=C(NCc1ccccc1Cl)c1csc2c1CCCCC2` was 8.35 µM; that for `CN(C)c1ccc(N2C(=O)CC(Nc3ccc(N4CCOCC4)cc3)C2=O)cc1` (centres undefined) was 1.23 µM.
The same measure for `COc1cc(C(=O)NCc2nnc(SCC(=O)Nc3nc4ccc(C)cc4s3)o2)cc(OC)c1OC`: 45.3 µM.
The value for `N=C1S/C(=C\c2ccco2)C(=O)N1c1ccc2c(c1)OCO2` was 9.26 µM; that for `O=C1/C(=C/c2ccco2)SC(=S)N1c1cccnc1` was 1.49 µM.
As for `COc1ccc(NC(=O)c2ccccc2NC(=O)CSc2ccc(Cl)cc2)cc1`, the IC50 was 57.7 µM.
The value for `Cn1cccc1/C=C1\CCC/C(=C\c2cccn2C)C1=O` was 3.09 µM; that for `CS(=O)(=O)N(CC(=O)Nc1ccc2c(c1)OCO2)Cc1ccccc1` was 94.7 µM.
Turning to `O=C1CC(=O)N(Cc2ccco2)C(=O)N1`, the 50% inhibitory concentration (IC50) is 4.49 µM.
With `Cc1c2ccccc2nc2c(F)c(N(C)C)c(F)c(F)c12`, the half-inhibitory concentration (IC50) is 15.7 µM.
The value for `O=C(NCC1CCCO1)c1cc(-c2ccco2)nc2ccccc12` (centres undefined) was 14.4 µM.
The value for `COc1cc2c(cc1OC)C(C)N(C(=O)c1cc3n(n1)C(C(F)(F)F)CC(c1ccco1)N3)CC2` (centres undefined) was 27.8 µM; that for `CCOc1ccccc1C(=O)NCC(=O)OCC(=O)NCCc1ccc(S(N)(=O)=O)cc1` was 75.8 µM; that for `O=c1cc2c(=O)oc3cc(O)c(O)oc3c2c(O)c1O` was 1.68 µM.
The same measure for `Cc1ccc(C)c(/C(O)=C2/C(=O)C(=O)N(CCN3CCOCC3)C2c2ccco2)c1` (centres undefined): 18.1 µM; for `CCOC(=O)C1CCCN(C(=O)c2ccc(CNc3c(N4CCC(C)CC4)c(=O)c3=O)cc2)C1` (centres undefined): 31.4 µM.
In the case of `Cc1ccc(/C=C/C2=Cc3c(sc(NC(=O)CSc4n[nH]c(N)n4)c3C#N)C(C)(C)C2)o1`, the IC50 was 0.8 µM.
Regarding `COc1ccccc1-n1c(-c2cc(-c3ccco3)[nH]n2)n[nH]c1=S`, the IC50 was 3.11 µM.
The value for `Cc1ccccc1NS(=O)(=O)c1ccc2[nH]cc(C(=O)N(C)Cc3ccco3)c(=O)c2c1` was 56.8 µM.
Regarding `C=CCn1c(C)c(C(C)=O)c(N2CCN(c3ccccc3)CC2)nc1=S`, the IC50 was 8.23 µM.

For orientation: IC50 means the concentration that inhibits the measured activity by half.
